Values after ≈ are worked out from the molar mass of the structure shown. Read-outs that look alike come from different tables or passages of the source.
Assays:
[1] = test system: herpes simplex virus type 2 (MS strain); test: In vitro antiviral activity, herpes simplex virus type 2 (virus rating); assay type: cell-based; conditions: Vero cells; VR >1.0 marked, 0.5 to 0.9 moderate, <0.5 weak or no activity
[2] = test system: vaccinia virus (Elstree strain); assay type: cell-based; conditions: HeLa cells; VR >1.0 marked, 0.5 to 0.9 moderate, <0.5 weak or no activity
[3] = test system: parainfluenza 3 (C243 strain); test: In vitro antiviral activity, parainfluenza 3 (virus rating); assay type: cell-based; conditions: Vero cells; VR >1.0 marked, 0.5 to 0.9 moderate, <0.5 weak or no activity
L1210 cells = test: In vitro cytotoxicity, L1210; assay type: cell-based, murine; conditions: Mus musculus, L1210, 72 h; 3 days, 37° C., MTT; read-out: Antitumor (ID50) L1210
Experimental: (§1) ^b (ID50) inhibitory dose is the μM concentration of the
(§2) In vitro cytotoxicity analysis was performed by using the following cell lines: L1210 (a murine leukemia), WI-L2 (a human B-lymphoblast), and LoVo/L (a human colon carcinoma). Cells were grown in RPMI 1640 medium supplemented with 10% fetal bovine serum, 20 mM HEPES, pH 7.4, and 2 mM glutamine. The cytotoxicity determinations were carried out in 96-well microtiter dishes containing a starting number of 5-10×10^3 cells per well and 0.1-100 μM concentrations of the compounds in triplicate wells. L1210 and WI-L2 were incubated with the compounds at 37° C. for 3 days, while Lovo/L was incubated for 5 days. After this time period, 25 μL of 4 mg/mL 3-(4,5-dimethylthiazol-2-yl)-2,5-diphenyltetrazolium bromide was added to each well and incubation was continued for 2 to 5 h. The formazan product was dissolved in isopropanol containing 0.04M HCl and the absorbance was determined with a microtiter plate reader. The absorbance was proportional to the number of cells.

WI-L2 cells = test: In vitro cytotoxicity, WI-L2; assay type: cell-based; conditions: Homo sapiens, WIL2, 72 h; 3 days, 37° C., MTT; read-out: Antitumor (ID50) WI-L2
Experimental: as §1, §2

LoVo/L cells = test: In vitro cytotoxicity, LoVo/L; assay type: cell-based; conditions: Homo sapiens, 120 h, 5 days, 37° C., MTT, read-out: Antitumor (ID50) LoVo/L
Experimental: as §1, §2

L1210 = test: In vivo antitumor activity against L1210 in BDF1 mice
Experimental: Compounds 8, 11, 14 and 17 were comparatively evaluated in vivo for efficacy against L1210 in BDF1 mice.
Mice were inoculated i.p. with 1×10^6 L1210 cells 24 hr before qd, day 1, i.p. drug delivery. Drugs were solubilized in water and delivered at the rate of 0.01 ml/g mouse weight. Then control mice/drug were injected i.p. with equivalent volumes of a 0.9% solution of NaCl, the means and standard deviations reflecting the postinoculation life spans of these mice ranged from 6.30±0.48 to 6.60±0.97 days.

[4] = test system: de novo purine biosynthesis in WI-L2 cells; test: Inhibition of de novo purine biosynthesis ([14C]formate incorporation); assay type: cell-based, human; conditions: for minimal effective concentration: active at concentrations as low as, read-out: lowest active concentration, de novo purine biosynthesis; for activity at 0.25 µM / activity at 2.5 µM: pre-incubation 8 h; for inhibitory activity on de novo purine biosynthesis (ranking): WI-L2 cells
Experimental: (§3) Compounds of the invention were also tested for certain biochemical properties. Compounds of the invention were studied for their effect on de novo purine biosynthesis by observing inhibition of incorporation of [^14 C]formate into the acid-soluble fraction of WI-L2 cells (see Table 3). […] However, 8 and 14 (100 μM) were not cytotoxic to WI-L2 cells deficient in adenosine kinase activity.
(§4) A normal lymphoblast phenotype B cell line, WI-L2 was used. The enzyme-deficient cell lines used in vitro are: HPRT-, a hypoxanthine-guanine phosphorbosyl transferase (EC 2.4.2.8)deficient line and AK-, an adenosine kinase (EC 2.7.1.20)deficient line. Cells were cultured in RPMI 1640 medium containing 5% dialyzed fetal bovine serum, 20 mM Na HEPES, pH 7.5 and 2 mM glutamine and maintained in log phase growth between 0.5 and 12×10^5 cells/mL. The mutant cell lines were periodically reselected by treatment with 6-thioguanine (HPRT-) or tubercidin (AK-).
. Inhibition of de novo purine biosynthesis: WI-L2 or adenosine kinase-deficient cells were preincubated at 37° C. with drug for various time periods prior to labeling with [^14 C]formate. Enzyme Assays: Adenosine kinase inhibition studies were accomplished by the filter binding assay method. Inhibition studies were done at 37° C. with an assay mixture containing 4 mM ATP, 1.5 mM MgCl2, 5 or 10 μM [8-^14 C] adenosine (50 mCi/mmol) and 100 mM Tris-maleate, pH 5.5. To prevent the enzymatic breakdown of adenosine, erythro-9-(2-hydroxy-3-nonyl)adenine (EHNA) was added to the cell-free WI-L2 lysate to give 5 μM final assay concentration. The assay was started by the addition of protein. The amount of enzyme, time of assay and sampling volume were adjusted to give acceptable conversion of [8-^14 C] adenosine to [8-^14 C]AMP. Each DE-81 filter was spotted with a constant sampling volume and immersed in H 2 O (4 L) to terminate the reaction. Filters were washed three times with H2 O (4 L) and once with EtOH (100 mL). Dry filters were placed in scintillation vials and radioactivity was counted with 10 mL toluene-based scintillation cocktail.
De novo purine biosynthesis was measured by the incorporation of ^14 C-formate into cellular purine nucleotides or excreted purines after pre-incubation with compound.

[5] = test system: WI-L2 cells deficient in adenosine kinase; test: Cytotoxicity to WI-L2 cells deficient in adenosine kinase activity; assay type: cell-based, human; conditions: 100 μM
Experimental: as §3, §4

in vitro = assay type: biochemical; conditions: adenosine deaminase, pH 7.5
Experimental: (§5) Samples were analyzed directly on reverse-phase HPLC. Enzymatic conversions were distinguished from hydrolysis by treating a parallel sample with EHNA to inhibit the deaminase activity.

adenosine deaminase = test: in vitro; assay type: biochemical; conditions: compared with ARPP
Experimental: as §5

[6] = test system: pyrimidine (CTP + UTP) and purine (ATP + GTP) nucleoside triphosphates; test: 14C-bicarbonate incorporation into acid soluble pyrimidine and purine nucleoside triphosphates; assay type: cell-based
Text: Comparative effect of compounds on ^14 C-bicarbonate
incorporation into acid soluble pyrimidine (PyrTP,
CTP + UTP) and purine (PurTP, ATP + GTP) nucleoside

[7] = delivered at 0.01 ml/g mouse weight
physchem = conditions: water
[8] = Lethal toxicity in treated mice
[9] = Intracellular phosphorylation (SAX-HPLC); assay type: cell-based
[10] = Homo sapiens, WIL2, cell, read-out: de novo purine biosynthesis, % of control, cell, 0.25 μM
[11] = Homo sapiens, WIL2, cell, read-out: de novo purine biosynthesis, % of control, cell, 2.5 μM
[12] = Homo sapiens, WIL2, media (excreted purines), read-out: de novo purine biosynthesis, % of control, media, 0.25 μM
[13] = Homo sapiens, WIL2, media (excreted purines), read-out: de novo purine biosynthesis, % of control, media, 2.5 μM

Compound | Antiviral (VR) HSV2 [1] | Antiviral (VR) VV [2] | Antiviral (VR) PI3 [3] | IC50 (L1210 cells) | IC50 (WI-L2 cells) | IC50 (LoVo/L cells) | effect on de novo purine biosynthesis [4] | minimal effective concentration ([4]; Homo sapiens, WIL2) | activity at 0.25 µM [4, 10] | activity at 2.5 µM [4, 11] | activity at 0.25 µM [4, 12] | activity at 2.5 µM [4, 13] | inhibitory activity on de novo purine biosynthesis (ranking) [4] | cytotoxicity to adenosine kinase-deficient WI-L2 cells [5] | substrate activity for adenosine deaminase (adenosine deaminase) | Maximum watersoluble dosage [7] | solubility (physchem) | lethal toxicity at maximum soluble dosage ([8]; i.p.) | other results
COc1ncnc2c(N[C@@H]3O[C@H](CO)[C@@H](O)[C@H]3O)ncnc12 [Compound 14, 4-Methoxy-8-(β-D-ribofuranosylamino)pyrimido[5,4-d]pyrimidine] | 0.2 VR | 1.0 VR | 0.7 VR | 40 nM | 60 nM | 280 nM | inhibit an early step in de novo purine biosynthesis | 0.25 µM | 41.9% | 2.7% | 63% | 41.8% | greatest inhibitory activity | not cytotoxic | less active as a substrate for adenosine deaminase | 173 mg/kg/inj. | 17.3 mg/mL (≈ 55.9 mM) | lethally toxic at that level for all treated mice | T/C, 62 mg/kg (L1210; 62 mg/kg, qd day 1): 182; Postinoculation Lifespan (% T/C), 62 mg/kg/inj. (L1210; 62 mg/kg/inj. i.p., qd, day 1): 182 % T/C; activity at 25 µM ([4]; Homo sapiens, WIL2, cell, 25 μM, pre-incubation 4 h, read-out: de novo purine biosynthesis, % of control, cell, 25 μM): 4.3%; metabolised at 18 h, 1000 µM (in vitro; 18 h, same conditions as for ARPP, read-out: deaminated by adenosine deaminase in 18 h): < 10%; CAA (carbamyl aspartate), 5.0 μM ([6]; 5.0 μM): 1322 cpm/10^6 cells; PurTP, 5.0 μM ([6]; 5.0 μM, zero = undetectable): 0 cpm/10^6 cells; PyrTP, 5.0 μM ([6]; 5.0 μM, zero = undetectable): 0 cpm/10^6 cells; activity at 5 µM ([6]; 5.0 μM, zero = undetectable, read-out: PurTP, % control, 5.0 μM): 0%; activity at 5 µM ([6]; 5.0 μM, zero = undetectable, read-out: PydTP, % control, 5.0 μM): 0%; maximum non-lethal concentration ([8]; i.p., qd day 1): 6.2 mg/mL; death of treated mice at 10.4 mg/mL ([8]; made up at 10.4 mg/mL): 1/6
Nc1ncnc2c(N[C@@H]3O[C@H](CO)[C@@H](O)[C@H]3O)ncnc12 [Compound 8, 4-Amino-8-(β-D-ribofuranosylamino)pyrimido[5,4-d]pyrimidine, reference compound] | 0.8 VR | 1.3 VR | 0.7 VR | 800 nM | 200 nM | 7000 nM | inhibit an early step in de novo purine biosynthesis | 0.25 µM | 79.5% | 29.9% | 71.9% | 54.6% | greatest inhibitory activity | not cytotoxic | preferential disappearance of the β-anomer | 173 mg/kg/inj. | 17.3 mg/mL (≈ 58.8 mM) | Neither drug was lethally toxic at its maximum soluble dosage | Postinoculation Lifespan (% T/C), 173 mg/kg/inj. (L1210; 173 mg/kg/inj. i.p., qd, day 1): 162 % T/C; T/C (L1210; qd, day 1, at maximum soluble dosage): 162; metabolised at 5 min, 1000 µM (in vitro; 5 min, β-anomer, read-out: conversion of β-anomer by adenosine deaminase in 5 min): 60%; CAA (carbamyl aspartate), 1.5 μM ([6]; 1.5 μM): 1608 cpm/10^6 cells; PurTP, 1.5 μM ([6]; 1.5 μM, zero = undetectable): 0 cpm/10^6 cells; PyrTP, 1.5 μM ([6]; 1.5 μM, zero = undetectable): 0 cpm/10^6 cells; activity at 1.5 µM ([6]; 1.5 μM, zero = undetectable, read-out: PurTP, % control, 1.5 μM): 0%; activity at 1.5 µM ([6]; read-out: PydTP, % control, 1.5 μM): 0%; intracellular phosphate formation [9]: formation of intracellular ARPP 5'-monophosphate but no higher phosphate analogues
